The results in this text go back to ChEMBL document CHEMBL5143686, “Development of Azaindole-Based Frameworks as Potential Antiviral Agents and Their Future Perspectives” (J Med Chem, 2022).

Data set [1] is described as follows: Solubility of the compound at pH 5.4. Format: physicochemical. The following applies: buffer.
A short description of data set [2]: Oral bioavailability in monkey. Format: ADME, organism-based, Macaca mulatta. The following applies: rhesus monkey, in vivo.
Data set [3] in a line: Oral bioavailability in rat. Format: ADME, organism-based. The following applies: in vivo.
A short description of data set [4]: Basic dissociation constant, pKa of the compound.
Data set [5] relates to Human immunodeficiency virus 1. Nature of the data set: Antiviral activity against HIV-1 assessed as inhibition of viral growth. Format: functional, organism-based.
In data set [6] the test system is Human immunodeficiency virus 1. As to the kind of experiment: Antiviral activity against HIV-1 JR-CSF assessed as inhibition of viral growth. Format: functional, organism-based. The following applies: Human immunodeficiency virus 1, JR-CSF.
Data set [7] relates to Human immunodeficiency virus 1. As to the kind of experiment: Antiviral activity against HIV-1 LAI T-tropic (X4) infected in human MT2 cells assessed as inhibition of viral growth by ELISA. Particulars: Human immunodeficiency virus 1, LAI T-tropic (X4). Format: functional, organism-based.
For data set [8], the system named is Human immunodeficiency virus 1. As to the kind of experiment: Antiviral activity against HIV-1 SF-162 macrophage-tropic (R5) infected in human PM1 cells assessed as inhibition of viral growth by ELISA. Format: functional, organism-based. The following applies: Human immunodeficiency virus 1, SF-162 macrophage-tropic (R5).
Data set [9] concerns Human immunodeficiency virus 1. Nature of the data set: Antiviral activity against HIV-1 SF-2 T-tropic (X4) infected in human MT2 cells assessed as inhibition of viral growth by ELISA. Format: functional, organism-based. Particulars: Human immunodeficiency virus 1, SF-2 T-tropic (X4).
The subject of data set [10] is Human immunodeficiency virus 1. Nature of the data set: Antiviral activity against HIV-1 Bal macrophage-tropic (R5) infected in human PM1 cells assessed as inhibition of viral growth by ELISA. The following applies: Human immunodeficiency virus 1, Bal macrophage-tropic (R5). Format: functional, organism-based.
Data set [11] can be described thus: Aqueous solubility of the compound. Format: physicochemical.
For data set [12], the system named is Human immunodeficiency virus 1. As to the kind of experiment: Antiviral activity against HIV-1 JRFL macrophage-tropic (R5) infected in human PM1 cells assessed as inhibition of viral growth by ELISA. Format: functional, organism-based. The following applies: Human immunodeficiency virus 1, JRFL macrophage-tropic (R5).
In data set [13] the test system is Human immunodeficiency virus 1. Nature of the data set: Antiviral activity against HIV-1 TLAV T-tropic (X4)/macrophage-tropic (R5) infected in human MT2 cells assessed as inhibition of viral growth by ELISA. Format: functional, organism-based. Particulars: Human immunodeficiency virus 1, TLAV T-tropic (X4)/macrophage-tropic (R5).
The nature of data set [14]: Oral bioavailability in dog. Format: ADME, organism-based, Canis lupus familiaris. The following applies: in vivo.
The subject of data set [15] is Human immunodeficiency virus 1. Nature of the data set: Antiviral activity against HIV-1 NL4-3 T-tropic (X4) infected in human MT2 cells assessed as inhibition of viral growth by ELISA. Format: functional, organism-based. Particulars: Human immunodeficiency virus 1, NL4-3 T-tropic (X4).

Values after ≈ are worked out from the molar mass of the structure shown.

In data set [1], `COc1cnc(OC)c2c1c(C(=O)C(=O)N1CCN(C(=O)c3ccccc3)CC1)cn2COP(=O)(O)O.NCCCC[C@H](N)C(=O)O` displayed a solubility above 12000 µg/mL.

For the compound `COc1ncc(OC)c2c(C(=O)C(=O)N3CCN(C(=O)c4ccccc4)CC3)c[nH]c12`, the results for the bioavailability in [2] and in [3] were 60% and 90%, respectively.

For the compound `c1cc2[nH]ccc2cn1`, the pKa in data set [4] worked out at 8.26.

Regarding `O=C(C(=O)N1CCN(C(=O)c2ccccc2)CC1)c1c[nH]c2c(-c3nccs3)ccc(F)c12`, the EC50 in data set [5] stood at 0.057 nM.

Take `Cc1csc(-c2ccc(F)c3c(C(=O)C(=O)N4CCN(C(=O)c5ccccc5)CC4)c[nH]c23)n1`: the EC50 in data set [5] was determined as 0.0058 nM.

For `Cc1ncn(-c2ncc(F)c3c(C(=O)C(=O)N4CC5CN(C(=O)c6ccccc6)CC5C4)c[nH]c23)n1` (stereo not given), the IC50 in data set [6] was 0.8 nM.

`c1cnc2cc[nH]c2c1` returned a pKa in data set [4] of 6.94.

For `COc1ccnc2[nH]cc(C(=O)C(=O)N3CCN(C(=O)c4ccccc4)C[C@@H]3C)c12`, the figures for the bioavailability in [2], in [3] and in [14] were 24%, 19% and 77%, respectively. Besides, the EC50 in data set [7] stood at 2.68 nM; in data set [8] it was 3.46 nM; in [9], 26.5 nM; in [10], 15.5 nM; in [12], 1.47 nM; in data set [13] it was 0.85 nM. The EC50 in data set [15] amounted to 2.94 nM. This compound gave a solubility in data set [11] of 170 µg/mL (≈ 418 µM).

In turn, `c1cc2cc[nH]c2cn1` returned a pKa in [4] of 7.93.
